Assay results from the NIST ThermoML archive (doi:10.1021/je0340248).
Numbers after ± are expanded uncertainties.

Assay: xn = mol fraction of the nth substance listed
Settings: 101 kPa, Liquid

## CC(O)CO (stereo unspecified) [1,2-propanediol] + COC(C)=O
298.15 K, x2 = 0.0465
  mass density: 1027.72 ± 0.34 kg/m3
  speed of sound: 1472 ± 2 m/s
  viscosity: 34.29 ± 0.48 mPa·s
298.15 K, x2 = 0.1493
  mass density: 1016.8 ± 0.39 kg/m3
  speed of sound: 1429 ± 2 m/s
  viscosity: 20.44 ± 0.32 mPa·s
298.15 K, x2 = 0.251
  mass density: 1006.23 ± 0.44 kg/m3
  speed of sound: 1388 ± 2 m/s
  viscosity: 12.35 ± 0.2 mPa·s
298.15 K, x2 = 0.3512
  mass density: 995.96 ± 0.48 kg/m3
  speed of sound: 1350 ± 2 m/s
  viscosity: 7.576 ± 0.12 mPa·s
298.15 K, x2 = 0.4412
  mass density: 986.79 ± 0.52 kg/m3
  speed of sound: 1318 ± 2 m/s
  viscosity: 4.915 ± 0.083 mPa·s
298.15 K, x2 = 0.4906
  mass density: 981.76 ± 0.54 kg/m3
  speed of sound: 1301 ± 2 m/s
  viscosity: 3.887 ± 0.065 mPa·s
298.15 K, x2 = 0.5499
  mass density: 975.7 ± 0.57 kg/m3
  speed of sound: 1281 ± 2 m/s
  viscosity: 2.939 ± 0.05 mPa·s
298.15 K, x2 = 0.6483
  mass density: 965.55 ± 0.61 kg/m3
  speed of sound: 1249 ± 2 m/s
  viscosity: 1.859 ± 0.032 mPa·s
298.15 K, x2 = 0.7483
  mass density: 955.01 ± 0.66 kg/m3
  speed of sound: 1218 ± 2 m/s
  viscosity: 1.176 ± 0.021 mPa·s
298.15 K, x2 = 0.8499
  mass density: 943.97 ± 0.7 kg/m3
  speed of sound: 1189 ± 2 m/s
  viscosity: 0.744 ± 0.013 mPa·s
298.15 K, x2 = 0.9447
  mass density: 933.26 ± 0.75 kg/m3
  speed of sound: 1164 ± 2 m/s
  viscosity: 0.489 ± 0.009 mPa·s
303.15 K, x2 = 0.0465
  mass density: 1023.69 ± 0.35 kg/m3
303.15 K, x2 = 0.1493
  mass density: 1012.28 ± 0.4 kg/m3
303.15 K, x2 = 0.251
  mass density: 1001.34 ± 0.45 kg/m3
303.15 K, x2 = 0.3512
  mass density: 990.75 ± 0.49 kg/m3
303.15 K, x2 = 0.4412
  mass density: 981.3 ± 0.54 kg/m3
303.15 K, x2 = 0.4906
  mass density: 976.11 ± 0.56 kg/m3
303.15 K, x2 = 0.5499
  mass density: 969.85 ± 0.59 kg/m3
303.15 K, x2 = 0.6483
  mass density: 959.34 ± 0.63 kg/m3
303.15 K, x2 = 0.7483
  mass density: 948.45 ± 0.68 kg/m3
303.15 K, x2 = 0.8499
  mass density: 937.1 ± 0.72 kg/m3
303.15 K, x2 = 0.9447
  mass density: 926.21 ± 0.77 kg/m3
308.15 K, x2 = 0.0465
  mass density: 1020.09 ± 0.36 kg/m3
  speed of sound: 1434 ± 2 m/s
  viscosity: 19.21 ± 0.37 mPa·s
308.15 K, x2 = 0.1493
  mass density: 1008.63 ± 0.41 kg/m3
  speed of sound: 1391 ± 2 m/s
  viscosity: 11.62 ± 0.21 mPa·s
308.15 K, x2 = 0.251
  mass density: 997.58 ± 0.46 kg/m3
  speed of sound: 1350 ± 2 m/s
  viscosity: 7.189 ± 0.13 mPa·s
308.15 K, x2 = 0.3512
  mass density: 986.86 ± 0.5 kg/m3
  speed of sound: 1313 ± 2 m/s
  viscosity: 4.553 ± 0.086 mPa·s
308.15 K, x2 = 0.4412
  mass density: 977.29 ± 0.55 kg/m3
  speed of sound: 1281 ± 2 m/s
  viscosity: 3.063 ± 0.058 mPa·s
308.15 K, x2 = 0.4906
  mass density: 972.05 ± 0.57 kg/m3
  speed of sound: 1264 ± 2 m/s
  viscosity: 2.478 ± 0.047 mPa·s
308.15 K, x2 = 0.5499
  mass density: 965.73 ± 0.6 kg/m3
  speed of sound: 1244 ± 2 m/s
  viscosity: 1.932 ± 0.035 mPa·s
308.15 K, x2 = 0.6483
  mass density: 955.15 ± 0.64 kg/m3
  speed of sound: 1211 ± 2 m/s
  viscosity: 1.294 ± 0.023 mPa·s
308.15 K, x2 = 0.7483
  mass density: 944.2 ± 0.69 kg/m3
  speed of sound: 1178 ± 2 m/s
  viscosity: 0.875 ± 0.016 mPa·s
308.15 K, x2 = 0.8499
  mass density: 932.79 ± 0.74 kg/m3
  speed of sound: 1147 ± 2 m/s
  viscosity: 0.598 ± 0.011 mPa·s
308.15 K, x2 = 0.9447
  mass density: 921.8 ± 0.78 kg/m3
  speed of sound: 1119 ± 2 m/s
  viscosity: 0.425 ± 0.008 mPa·s
313.15 K, x2 = 0.0465
  mass density: 1015.96 ± 0.37 kg/m3
313.15 K, x2 = 0.1493
  mass density: 1004.03 ± 0.42 kg/m3
313.15 K, x2 = 0.251
  mass density: 992.61 ± 0.47 kg/m3
313.15 K, x2 = 0.3512
  mass density: 981.59 ± 0.52 kg/m3
313.15 K, x2 = 0.4412
  mass density: 971.76 ± 0.56 kg/m3
313.15 K, x2 = 0.4906
  mass density: 966.37 ± 0.59 kg/m3
313.15 K, x2 = 0.5499
  mass density: 959.87 ± 0.62 kg/m3
313.15 K, x2 = 0.6483
  mass density: 949 ± 0.66 kg/m3
313.15 K, x2 = 0.7483
  mass density: 937.77 ± 0.71 kg/m3
313.15 K, x2 = 0.8499
  mass density: 926.1 ± 0.76 kg/m3
313.15 K, x2 = 0.9447
  mass density: 914.96 ± 0.8 kg/m3

## OCCOCCOCCO [triethylene glycol] + CCOC(C)=O
298.15 K, x2 = 0.0466
  mass density: 1112.15 ± 0.32 kg/m3
  speed of sound: 1592 ± 2 m/s
  viscosity: 30.14 ± 0.4 mPa·s
298.15 K, x2 = 0.1482
  mass density: 1095.3 ± 0.33 kg/m3
  speed of sound: 1547 ± 2 m/s
  viscosity: 22.05 ± 0.31 mPa·s
298.15 K, x2 = 0.25
  mass density: 1077.4 ± 0.34 kg/m3
  speed of sound: 1499 ± 2 m/s
  viscosity: 15.58 ± 0.22 mPa·s
298.15 K, x2 = 0.3499
  mass density: 1058.65 ± 0.38 kg/m3
  speed of sound: 1452 ± 2 m/s
  viscosity: 10.73 ± 0.16 mPa·s
298.15 K, x2 = 0.4493
  mass density: 1038.63 ± 0.43 kg/m3
  speed of sound: 1408 ± 2 m/s
  viscosity: 7.167 ± 0.11 mPa·s
298.15 K, x2 = 0.4995
  mass density: 1027.95 ± 0.46 kg/m3
  speed of sound: 1386 ± 2 m/s
  viscosity: 5.775 ± 0.091 mPa·s
298.15 K, x2 = 0.5503
  mass density: 1016.71 ± 0.48 kg/m3
  speed of sound: 1363 ± 2 m/s
  viscosity: 4.602 ± 0.075 mPa·s
298.15 K, x2 = 0.6497
  mass density: 993.4 ± 0.55 kg/m3
  speed of sound: 1318 ± 2 m/s
  viscosity: 2.881 ± 0.048 mPa·s
298.15 K, x2 = 0.749
  mass density: 968.18 ± 0.62 kg/m3
  speed of sound: 1271 ± 2 m/s
  viscosity: 1.748 ± 0.03 mPa·s
298.15 K, x2 = 0.8503
  mass density: 940.27 ± 0.72 kg/m3
  speed of sound: 1220 ± 2 m/s
  viscosity: 1.015 ± 0.018 mPa·s
298.15 K, x2 = 0.9417
  mass density: 913.03 ± 0.81 kg/m3
  speed of sound: 1171 ± 2 m/s
  viscosity: 0.604 ± 0.011 mPa·s
303.15 K, x2 = 0.0466
  mass density: 1108.39 ± 0.32 kg/m3
303.15 K, x2 = 0.1482
  mass density: 1091.27 ± 0.32 kg/m3
303.15 K, x2 = 0.25
  mass density: 1073.02 ± 0.34 kg/m3
303.15 K, x2 = 0.3499
  mass density: 1053.94 ± 0.38 kg/m3
303.15 K, x2 = 0.4493
  mass density: 1033.67 ± 0.43 kg/m3
303.15 K, x2 = 0.4995
  mass density: 1022.9 ± 0.46 kg/m3
303.15 K, x2 = 0.5503
  mass density: 1011.6 ± 0.49 kg/m3
303.15 K, x2 = 0.6497
  mass density: 988.21 ± 0.56 kg/m3
303.15 K, x2 = 0.749
  mass density: 962.95 ± 0.64 kg/m3
303.15 K, x2 = 0.8503
  mass density: 934.9 ± 0.73 kg/m3
303.15 K, x2 = 0.9417
  mass density: 907.33 ± 0.83 kg/m3
308.15 K, x2 = 0.0466
  mass density: 1104.32 ± 0.31 kg/m3
  speed of sound: 1567 ± 2 m/s
  viscosity: 18.65 ± 0.31 mPa·s
308.15 K, x2 = 0.1482
  mass density: 1086.97 ± 0.32 kg/m3
  speed of sound: 1523 ± 2 m/s
  viscosity: 13.71 ± 0.23 mPa·s
308.15 K, x2 = 0.25
  mass density: 1068.55 ± 0.34 kg/m3
  speed of sound: 1473 ± 2 m/s
  viscosity: 9.818 ± 0.16 mPa·s
308.15 K, x2 = 0.3499
  mass density: 1049.34 ± 0.38 kg/m3
  speed of sound: 1426 ± 2 m/s
  viscosity: 6.905 ± 0.12 mPa·s
308.15 K, x2 = 0.4493
  mass density: 1028.96 ± 0.44 kg/m3
  speed of sound: 1379 ± 2 m/s
  viscosity: 4.749 ± 0.084 mPa·s
308.15 K, x2 = 0.4995
  mass density: 1018.12 ± 0.47 kg/m3
  speed of sound: 1356 ± 2 m/s
  viscosity: 3.896 ± 0.068 mPa·s
308.15 K, x2 = 0.5503
  mass density: 1006.75 ± 0.5 kg/m3
  speed of sound: 1333 ± 2 m/s
  viscosity: 3.168 ± 0.055 mPa·s
308.15 K, x2 = 0.6497
  mass density: 983.2 ± 0.57 kg/m3
  speed of sound: 1286 ± 2 m/s
  viscosity: 2.076 ± 0.035 mPa·s
308.15 K, x2 = 0.749
  mass density: 957.73 ± 0.65 kg/m3
  speed of sound: 1236 ± 2 m/s
  viscosity: 1.329 ± 0.022 mPa·s
308.15 K, x2 = 0.8503
  mass density: 929.41 ± 0.75 kg/m3
  speed of sound: 1181 ± 2 m/s
  viscosity: 0.823 ± 0.014 mPa·s
308.15 K, x2 = 0.9417
  mass density: 901.55 ± 0.84 kg/m3
  speed of sound: 1130 ± 2 m/s
  viscosity: 0.523 ± 0.01 mPa·s
313.15 K, x2 = 0.0466
  mass density: 1101.76 ± 0.3 kg/m3
313.15 K, x2 = 0.1482
  mass density: 1084.07 ± 0.32 kg/m3
313.15 K, x2 = 0.25
  mass density: 1065.26 ± 0.34 kg/m3
313.15 K, x2 = 0.3499
  mass density: 1045.63 ± 0.39 kg/m3
313.15 K, x2 = 0.4493
  mass density: 1024.82 ± 0.45 kg/m3
313.15 K, x2 = 0.4995
  mass density: 1013.77 ± 0.48 kg/m3
313.15 K, x2 = 0.5503
  mass density: 1002.18 ± 0.51 kg/m3
313.15 K, x2 = 0.6497
  mass density: 978.19 ± 0.59 kg/m3
313.15 K, x2 = 0.749
  mass density: 952.29 ± 0.67 kg/m3
313.15 K, x2 = 0.8503
  mass density: 923.53 ± 0.77 kg/m3
313.15 K, x2 = 0.9417
  mass density: 895.28 ± 0.87 kg/m3
